Source: EP0768881B1, “ANTI-HIV TRIPLE COMBINATION COMPRISING ZIDOVUDINE, LAMIVUDINE AND LOVIRIDE” (JANSSEN PHARMACEUTICA N.V., priority 1994, dated 1996)

Columns and labels:
CD4 cells = settings: patients receiving established anti-HIV drugs alone; count then decreases again; cited from earlier work
[1] = Pharmacokinetic interaction between components in open case-control study; format: in vivo, HIV-1 infected patients; settings: between lamivudine and zidovudine or loviride
Experimental: The triple combination of zidovudine (200 mg t.i.d.), lamivudine (300 mg b.i.d.) and loviride (100 mg t.i.d.) versus the double combination of zidovudine (200 mg t.i.d.) and loviride (100 mg t.i.d.) was assessed in an open case-control study. Twenty HIV-1 infected patients with a positive p24 antigen test at baseline were included. Both combinations were well tolerated. Serious drug-induced safety-related abnormalities were not observed. […] The median CD4 count (% versus baseline) during therapy in the group of patients treated with the triple combination were compared with the median CD4 count in the group of patients treated with the double combination in Table 1. The median p24 antigen count (% versus baseline) of the group of patients treated with the triple combination were compared with the median p24 antigen count of the group of patients treated with double combination in Table 2.

In the case of `Nc1ccn([C@H]2CS[C@@H](CO)O2)c(=O)n1` [lamivudine, (-)-2',3'-dideoxy-3'-thiacytidine], the CD4 count increase (CD4 cells) is listed as “about 20%” and the pharmacokinetic interaction [1] is listed as “No clinically relevant pharmacokinetic interaction”.

For `Cc1cn([C@H]2C[C@H](N=[N+]=[N-])[C@@H](CO)O2)c(=O)[nH]c1=O` [zidovudine, 3'-azido-3'-deoxythymidine], the CD4 count increase (CD4 cells) is listed as “about 20%”.
